US11685732B2, “MYST family histone acetyltransferase inhibitors” (Epizyme, Inc., priority 2017, dated 2023)

Legend:
[1] = target: KAT-5 (Homo sapiens (Human), UniProt Q92993); test: KAT-5 biochemical inhibition assay (SAMDI mass spectrometry)
In short: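 KAT-5 at 9 nM final was preincubated with serially diluted compound (2% DMSO) in 50 mM Tris pH 8.0 with 1 mM DTT. Reaction ran with 1 μM peptide substrate and 0.5 μM acetyl-CoA for 90 min at 25° C, was quenched with 0.5% formic acid, and was read by SAMDI-TOF mass spectrometry.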

[2] = target: KAT-8 (Homo sapiens (Human), UniProt Q9H7Z6); test: KAT-8 biochemical inhibition assay (SAMDI mass spectrometry)
Chain of KAT-8 (Q9H7Z6 other isoform, or with tags, fused parts or gaps): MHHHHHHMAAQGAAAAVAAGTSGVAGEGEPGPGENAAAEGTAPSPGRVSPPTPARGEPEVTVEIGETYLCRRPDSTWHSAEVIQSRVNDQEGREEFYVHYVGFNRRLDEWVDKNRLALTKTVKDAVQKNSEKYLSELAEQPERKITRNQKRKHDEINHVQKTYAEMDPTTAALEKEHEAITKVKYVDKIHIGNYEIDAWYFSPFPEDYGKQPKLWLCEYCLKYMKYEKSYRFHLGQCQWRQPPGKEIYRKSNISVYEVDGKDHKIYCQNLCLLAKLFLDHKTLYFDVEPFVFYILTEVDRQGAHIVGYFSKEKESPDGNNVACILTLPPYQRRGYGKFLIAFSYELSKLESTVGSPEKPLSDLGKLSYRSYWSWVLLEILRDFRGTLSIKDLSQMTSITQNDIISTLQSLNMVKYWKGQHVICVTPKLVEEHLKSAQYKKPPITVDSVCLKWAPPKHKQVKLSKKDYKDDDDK
In short: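 Compounds in 2% DMSO pre-incubated with 12.5 nM enzyme in 50 mM Tris pH 8.0 with Tween20, gelatin and 1 mM DTT. Then 1 μM peptide and 5 μM acetyl-CoA were added, 90 min at 25 °C; formic acid stop and SAMDI-TOF mass spectrometry for IC50.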

[3] = target: KAT-7 (Homo sapiens (Human), UniProt O95251); test: KAT-7 biochemical inhibition assay (SAMDI mass spectrometry)
Chain of KAT-7 (O95251 other isoform, or with tags, fused parts or gaps): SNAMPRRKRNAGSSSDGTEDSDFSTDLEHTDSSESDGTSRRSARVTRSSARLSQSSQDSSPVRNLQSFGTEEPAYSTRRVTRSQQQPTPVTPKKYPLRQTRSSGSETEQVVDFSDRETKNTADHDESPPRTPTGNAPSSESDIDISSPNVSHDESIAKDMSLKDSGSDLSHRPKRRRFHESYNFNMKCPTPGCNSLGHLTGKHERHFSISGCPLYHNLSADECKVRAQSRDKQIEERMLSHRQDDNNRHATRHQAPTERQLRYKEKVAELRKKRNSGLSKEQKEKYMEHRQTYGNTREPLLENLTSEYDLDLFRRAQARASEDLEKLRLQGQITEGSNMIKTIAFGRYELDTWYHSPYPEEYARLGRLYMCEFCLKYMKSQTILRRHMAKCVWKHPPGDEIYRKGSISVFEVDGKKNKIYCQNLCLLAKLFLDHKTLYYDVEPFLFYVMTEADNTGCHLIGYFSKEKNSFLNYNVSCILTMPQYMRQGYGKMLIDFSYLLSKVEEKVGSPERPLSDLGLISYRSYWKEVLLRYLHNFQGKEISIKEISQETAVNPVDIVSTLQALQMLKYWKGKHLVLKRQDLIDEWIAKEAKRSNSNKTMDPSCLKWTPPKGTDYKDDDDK
In short: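 KAT-7 (6 nM) was pre-incubated with serially diluted compound (2% DMSO) in Tris pH 8.0 with DTT. Reaction with 1 μM peptide and 2 μM acetyl-CoA ran 120 min at 25 °C and was stopped with 0.5% formic acid. Acetylation was read by SAMDI-TOF mass spectrometry to give IC50.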

[4] = target: KAT-6A (Homo sapiens (Human), UniProt Q92794); test: KAT-6A biochemical inhibition assay (SAMDI mass spectrometry)
Chain of KAT-6A (Q92794 other isoform, or with tags, fused parts or gaps): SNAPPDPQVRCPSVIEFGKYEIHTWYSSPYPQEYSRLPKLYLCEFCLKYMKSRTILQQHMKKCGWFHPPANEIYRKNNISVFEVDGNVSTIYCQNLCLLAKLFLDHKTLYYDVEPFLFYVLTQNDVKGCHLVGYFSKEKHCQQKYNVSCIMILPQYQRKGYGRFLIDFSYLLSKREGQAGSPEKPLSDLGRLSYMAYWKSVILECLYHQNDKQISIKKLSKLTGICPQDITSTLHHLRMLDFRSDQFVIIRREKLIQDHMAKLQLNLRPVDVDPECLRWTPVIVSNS
In short: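 Enzyme (12.5 nM final) pre-incubated with serially diluted compounds (2% DMSO final) in 50 mM Tris pH 8.0 with Tween20, gelatin and 1 mM DTT. Reaction started with 1 μM peptide substrate and 1 μM acetyl-CoA, run 90 min at 25 °C, quenched with 0.5% formic acid, read by SAMDI-TOF mass spectrometry; IC50 derived.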

Chain of KAT-5 (Q92993 other isoform, or with tags, fused parts or gaps): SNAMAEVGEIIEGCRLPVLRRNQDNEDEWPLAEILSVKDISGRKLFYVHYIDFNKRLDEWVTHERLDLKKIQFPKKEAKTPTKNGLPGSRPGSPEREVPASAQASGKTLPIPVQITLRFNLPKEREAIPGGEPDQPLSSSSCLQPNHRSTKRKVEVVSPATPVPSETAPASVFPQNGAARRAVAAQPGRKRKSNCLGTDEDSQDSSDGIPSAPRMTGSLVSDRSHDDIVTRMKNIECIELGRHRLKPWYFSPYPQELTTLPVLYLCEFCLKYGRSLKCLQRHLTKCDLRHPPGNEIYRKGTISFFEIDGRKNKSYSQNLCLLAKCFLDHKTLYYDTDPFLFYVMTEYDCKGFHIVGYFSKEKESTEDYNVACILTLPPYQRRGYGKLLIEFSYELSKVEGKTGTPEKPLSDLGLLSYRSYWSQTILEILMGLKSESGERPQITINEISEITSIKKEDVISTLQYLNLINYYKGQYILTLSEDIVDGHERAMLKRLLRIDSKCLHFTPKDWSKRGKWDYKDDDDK

SMILES | IC50 [1] | IC50 [2] | IC50 [3] | IC50 [4]
Cn1cnc(-c2cc(Cl)c(F)c(C(=O)NNS(=O)(=O)CC3CCCN(C(=O)C4CCOCC4)C3)c2)c1 (stereo not shown) [Compound I-32] | < 10 µM | > 100 µM | < 10 µM | < 10 µM
Cn1cnc(-c2cc(Cl)c(F)c(C(=O)NNS(=O)(=O)CC3CCC4CCC3N4C(=O)OC(C)(C)C)c2)c1 (stereo not shown) [Compound I-250] | < 10 µM | 10 to 50 µM | < 10 µM | 10 to 50 µM
Cc1cc(-c2cn(C)cn2)cc(C(=O)NNS(=O)(=O)C2CCOCC2)c1F [Compound I-131] | 10 to 50 µM | > 100 µM | < 10 µM | 10 to 50 µM
Cc1nc(-c2cc(Cl)c(F)c(C(=O)NNS(=O)(=O)CC3CCOCC3)c2)co1 [Compound I-80] | 10 to 50 µM | 10 to 50 µM | 10 to 50 µM | < 10 µM
O=C(NNS(=O)(=O)CC1CCOCC1)c1cc(-n2cncn2)cc(Cl)c1F [Compound I-165] | 10 to 50 µM | 10 to 50 µM | 10 to 50 µM | 10 to 50 µM
COc1ccc(CN(C)C(=O)N[C@H]2C[C@@H](CS(=O)(=O)NNC(=O)c3cc(-c4cn(C)cn4)cc(Cl)c3F)C2)cc1 [Compound I-161] | < 10 µM | 10 to 50 µM | < 10 µM | < 10 µM
CN(C(=O)OC(C)(C)C)c1ccc(S(=O)(=O)NNC(=O)c2cc(-c3cn(C)cn3)cc(Cl)c2F)cc1 [Compound I-377] | 10 to 50 µM | 10 to 50 µM | < 10 µM | 10 to 50 µM
CCNC(=O)NC1CCC(CS(=O)(=O)NNC(=O)c2cc(-c3cn(C)cn3)cc(Cl)c2F)C1 (stereo not shown) [Compound I-286] | < 10 µM | 10 to 50 µM | < 10 µM | < 10 µM
Cn1cnc(-c2cc(Cl)c(F)c(C(=O)NNS(=O)(=O)c3ccc(F)cc3)c2)c1 [Compound I-316] | < 10 µM | 10 to 50 µM | < 10 µM | < 10 µM
CN(C)C(=O)N(C)[C@H]1CC[C@@H](CS(=O)(=O)NNC(=O)c2cc(-c3cn(C)cn3)cc(Cl)c2F)CC1 [Compound I-365] | < 10 µM | 10 to 50 µM | < 10 µM | < 10 µM
O=C(NNS(=O)(=O)CC1CCOCC1)c1cc(-n2ccnn2)cc(Cl)c1F [Compound I-90] | 10 to 50 µM | 10 to 50 µM | 10 to 50 µM | 10 to 50 µM
Cc1ncc(-c2cc(Cl)c(F)c(C(=O)NNS(=O)(=O)CC3CCOCC3)c2)n1C [Compound I-30] | > 100 µM | > 100 µM | > 100 µM | > 100 µM

Second part, the compound after the results:

IC50 [1] | IC50 [2] | IC50 [3] | IC50 [4] | SMILES
< 10 µM | 10 to 50 µM | < 10 µM | < 10 µM | Cn1cnc(-c2cc(Cl)c(F)c(C(=O)NNS(=O)(=O)CC3CCCC(S(=O)(=O)C4CCC4)C3)c2)c1 (stereo not shown) [Compound I-91]
< 10 µM | 10 to 50 µM | < 10 µM | < 10 µM | CCNC(=O)N1CCCC(CS(=O)(=O)NNC(=O)c2cc(-c3cn(C)cn3)cc(Cl)c2F)C1 (stereo not shown) [Compound I-105]
10 to 50 µM | 10 to 50 µM | < 10 µM | 10 to 50 µM | Cn1cnc(-c2cc(Cl)c(F)c(C(=O)NNS(=O)(=O)C[C@H]3CCNC3)c2)c1 [Compound I-121]
< 10 µM | 10 to 50 µM | < 10 µM | < 10 µM | CNC(=O)N1CCCC(CS(=O)(=O)NNC(=O)c2cc(-c3cn(C)cn3)cc(Cl)c2F)C1 (stereo not shown) [Compound I-191]
< 10 µM | 10 to 50 µM | < 10 µM | < 10 µM | Cn1cnc(-c2cc(Cl)c(F)c(C(=O)NNS(=O)(=O)C[C@H]3CCC[C@@H](O)C3)c2)c1 [Compound I-300]
< 10 µM | 10 to 50 µM | < 10 µM | < 10 µM | CCCS(=O)(=O)N1CCCC(CS(=O)(=O)NNC(=O)c2cc(-c3cn(C)cn3)cc(Cl)c2F)C1 (stereo not shown) [Compound I-94]
< 10 µM | 10 to 50 µM | < 10 µM | 10 to 50 µM | CCC(=O)N1CCC(CS(=O)(=O)NNC(=O)c2cc(-c3cn(C)cn3)cc(Cl)c2F)C1 (stereo not shown) [Compound I-73]
